Data published in patent US20250382556A1, “MODULATION OF THE BRANCHED-CHAIN METABOLITE CONTENT OF FRUITS AND VEGETABLES” (BOARD OF TRUSTEES OF MICHIGAN STATE UNIVERSITY, priority 2024, published 2025).

Tested on: flowering quince peel
Assay: Free amino acid content of flowering quince peel via UPLC-MS/MS after AHAS inhibitor treatment
Format: in vivo, Chaenomeles x superba
Parameters: key to free asparagine content compared to control / free aspartate content compared to control / free cysteine content compared to control / free glutamate content compared to control / free glutamine content compared to control / free glycine content compared to control / free lysine content compared to control / free phenylalanine content compared to control / free threonine content compared to control / free tryptophan content compared to control / free tyrosine content compared to control / free alanine content compared to control / free arginine content compared to control: —: Dash indicates no significant difference between treatments
Experimental: Whole apple fruit, freshly harvested and at an early stage of ripening (‘ripening’), were held at room temperature (22° C.) and rubbed daily with 3 mL of a freshly made 1mM solution of the inhibitor rimsulfuron (N-((4,6-dimethoxypyrimidin-2-yl)aminocarbonyl)-3-(ethylsulfonyl)-2-pyridinesulfonamide, made from DuPont MATRIX® SG, 25% w/w active ingredient; 0.1% Tween 20) or water solution containing 0.1% Tween 20 before preparation with further treatments. Flowering quince fruit were smaller than the apple fruit and had 2 mL of the control and treatment solutions applied daily at 22° C. ‘Gala’, ‘Empire’, and ‘Jonagold’ apple fruit were treated for four, nine, and seven days before further preparation, respectively. Flowering quince fruit were treated for six days before analysis. Headspace volatile emissions were monitored for three or four representative fruits during the incubation/treatment period to determine appropriate times for further treatments. During method testing, 1 mM solutions of the imidazolinone imazamox was also assessed with apple fruit (2-[4,5-dihydro-4-methyl-4-(1-methylethyl)-5-oxo-1H-imidazol-2-yl]-5-(methoxymethyl)-3-pyridinecarboxylic acid, made from RAPTOR®, 12.1% w/w active ingredient; 0.1% Tween 20).
After volatile analysis, apple peel disks, collected peel of flowering quince, and ‘Valery’ pulp section samples were held at −80° C. for further amino acid analysis.
Frozen samples were ground to a powder in liquid nitrogen-chilled mortar and pestles. About 500 mg of tissue was vortexed for 10 sec in 2 mL of room temperature (22° C.) extraction solution (1:1:1 water:acetonitrile:ethanol, v/v/v) spiked with 2 nmoles of U-^13C,^15N labeled amino acids (MilliporeSigma) as internal standards and heated for 15 min in a 65° C. water bath. Extracts were briefly chilled on ice before centrifugation at 4400×g for 15 min at 4° C. The supernatant was filtered by centrifugation (0.2 μm nylon centrifugal filter; Costar, Corning) at 21000×g for 5 min at room temperature. 10 μL of the filtrate was transferred to an autosampler vial and diluted 100-fold with 990 μL of 10.1 mM perfluorohexanoic acid (PFHA) spiked with […] of internal standard. Thus the final concentration of internal standard was ˜2 μM.
An amino acid standard series was prepared from a premade mixture (MilliporeSigma, AAS18) that contained equal molar amounts of cystine and all 20 proteinogenic amino acids save for tryptophan, asparagine, glutamine, and cysteine. An equal molar mixture of tryptophan, asparagine, glutamine, and cysteine was subsequently prepared. To avoid dilution errors or artefacts from differing buffers, these amino acid stocks were aliquoted and desiccated such that a five-part standard series ranging from 250 μM to 25 nM would be produced upon resuscitation with 10 μL of spiked extraction buffer and 990 μL spiked PFHA solution.
Samples and amino acids were held overnight at −20° C. before analysis. Amino acids were analyzed with a Xevo TQ-S Micro UPLC (H-Class)-MS/MS (Waters) at the Michigan State University Mass Spectrometry and Metabolomics Core. Conditions were as follows. HPLC column: Acquirt UPLC HSS T3, 2.1×100 mm, 1.7 μm particle size (Waters), with a 0.2 μm pre-column filter (Waters). Mobile phase: A) 10 mM PFHA in water, B) acetonitrile. LC gradient: linear gradient, slope setting=6, flow rate=0.3 mL·min^−1, step 1) 0 min, 100% A, 0% B, 2) 1 min, 100% A, 0% B, 3) 8 min, 35% A, 65% B, 4) 8.01 min, 10% A, 90% B, 5) 9 min, 10% A, 90% B, 6) 9.01 min, 100% A, 0% B, 7) 13 min, 100% A, 0% B. Column temp: 40° C. Autosampler temp: 10° C. Injection volume: 10 μL. Tune parameters: electrospray ionization, standard ESI probe, capillary voltage=+1.0 kV, source temp=120° C., desolvation temp=350° C., desolvation gas=800 L·hr^−1, cone gas=40 L·hr^−1. MS collection was split into three phases and were adjusted after checking the retention time of several samples; however proline was missed for apple and flowering quince samples. […]

[1] = Dr. Banks Pink flowering quince peel, 1 mM daily, six days

CCS(=O)(=O)c1cccnc1S(=O)(=O)NC(=O)Nc1nc(OC)cc(OC)n1 [rimsulfuron, N-((4,6-dimethoxypyrimidin-2-yl)aminocarbonyl)-3-(ethylsulfonyl)-2-pyridinesulfonamide]
free alanine content compared to control [1]: —
free arginine content compared to control [1]: —
free asparagine content compared to control [1]: —
free aspartate content compared to control [1]: —
free cysteine content compared to control [1]: —
free glutamate content compared to control [1]: —
free glutamine content compared to control [1]: —
free glycine content compared to control [1]: —
free histidine content compared to control [1]: 166.5 ± 20.1%
free isoleucine content compared to control [1]: 51.3 ± 9.1%
free leucine content compared to control [1]: 81.9 ± 5.4%
free lysine content compared to control [1]: —
free methionine content compared to control [1]: 245.3 ± 38.5%
free phenylalanine content compared to control [1]: —
free serine content compared to control [1]: 302.1 ± 32.0%
free threonine content compared to control [1]: —
free tryptophan content compared to control [1]: —
free tyrosine content compared to control [1]: —
free valine content compared to control [1]: 28.1 ± 3.8%
leucine content reduced (flowering quince peel tissue): 18.1%
total content of free amino acids (flowering quince peel tissue): not significantly altered
valine and isoleucine collectively reduced (flowering quince peel tissue): 64.2%
